Several values for one entry are separate records, joined by “and”; a condition that tells them apart may be missing. Identical values can stand only once.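 Tested at 5 concentrations; 48 h exposure; 96-well plates; endpoints linearly interpolated, else capped at highest concentration. GI50 marks 50% less growth. TGI is the concentration that stops growth completely.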

Among the test systems are NCI-H522 lung; SK-MEL-2 melanoma; HOP-92 NSCLC; HCC-2998 colon; SN12C renal; HCT-116 colon; LOX IMVI melanoma; RXF 393 renal; MALME-3M melanoma; UACC-257 melanoma.
Common to all, as to experiment: NCI-60 cell line screen, 48 h

Turning to `C[C@H]1[C@H](OC(=O)CCC(=O)O)O[C@@H]2O[C@]3(C)CC[C@H]4[C@H](C)CC[C@@H]1[C@@]24OO3`, the GI50 in the test on NCI-H522 lung was 0.365 µM; in the test on SK-MEL-2 melanoma it was 2.86 µM; in the test with HOP-92 NSCLC, 0.214 µM; with HCC-2998 colon, 1.48 µM; in the test on SN12C renal, 0.777 µM; with HCT-116 colon, 0.129 µM. Also, the GI50 with LOX IMVI melanoma was 0.421 µM; with RXF 393 renal it was 0.953 µM; in the test with MALME-3M melanoma it was 0.878 µM; with UACC-257 melanoma, 3.36 µM. The TGI is 5.43 µM in the test with NCI-H522 lung; 59.8 µM in the test on SK-MEL-2 melanoma; 2.38 µM in the test with HOP-92 NSCLC; 24 µM in the test on HCC-2998 colon; more than 48.9 µM with SN12C renal; 11.4 µM in the test on HCT-116 colon. For the same molecule, the TGI in the test on LOX IMVI melanoma was 4.79 µM; in the test with RXF 393 renal, 33 µM; in the test with MALME-3M melanoma, 31.6 µM; in the test on UACC-257 melanoma, more than 100 µM.
Turning to `CCOC(=O)CCC(NC(=O)c1ccc(N=Cc2nc3cc(C(F)(F)F)ccc3nc2-c2ccccc2)cc1)C(=O)OCC` (centres undefined), the GI50 in the test on NCI-H522 lung was 21.5 µM; in the test with SK-MEL-2 melanoma, 37.7 µM; in the test on HOP-92 NSCLC it was 12.5 µM; in the test on HCC-2998 colon, more than 100 µM; in the test on SN12C renal, more than 100 µM; in the test with HCT-116 colon, 44.7 µM. Moreover, the GI50 with LOX IMVI melanoma was more than 100 µM; with RXF 393 renal, 3.1 µM; in the test on MALME-3M melanoma, more than 100 µM; in the test with UACC-257 melanoma, more than 100 µM. Also, the TGI in the test on NCI-H522 lung is 50 µM and > 100 µM; in the test on SK-MEL-2 melanoma it was 34.7 µM and > 100 µM; in the test with HOP-92 NSCLC, 18.3 µM and 45.8 µM; with HCC-2998 colon, more than 100 µM; in the test with SN12C renal, more than 100 µM; in the test on HCT-116 colon it was 19.4 µM and > 100 µM. Further, the TGI in the test with LOX IMVI melanoma was 50 µM and > 100 µM; with RXF 393 renal, 17.2 µM and 20.2 µM; in the test on MALME-3M melanoma, 22.7 µM and > 100 µM; in the test with UACC-257 melanoma, more than 100 µM.
For `NNC(=O)/C(=C/c1cccc([N+](=O)[O-])c1)NC(=O)c1ccccc1`, the TGI in the test with NCI-H522 lung, in the test with SK-MEL-2 melanoma, in the test with HOP-92 NSCLC, in the test on HCC-2998 colon, in the test on SN12C renal and in the test on HCT-116 colon was more than 100 µM in each case. The TGI in the test with LOX IMVI melanoma, with RXF 393 renal, in the test with MALME-3M melanoma and in the test on UACC-257 melanoma was more than 100 µM each time.
Consider `CNC(=O)OCc1nc(SC(C)C)n(C)c1COC(=O)NC`, for which the TGI in the test on NCI-H522 lung, in the test with SK-MEL-2 melanoma, with HOP-92 NSCLC, in the test with HCC-2998 colon, in the test on SN12C renal and with HCT-116 colon was more than 100 µM each time. For the same molecule, the TGI with LOX IMVI melanoma, with RXF 393 renal, in the test on MALME-3M melanoma and with UACC-257 melanoma was more than 100 µM each time.
With `COc1c(OC(C)=O)ccc(/C=C2\N=C(C)OC2=O)c1[N+](=O)[O-]`, the TGI in the test with NCI-H522 lung, in the test on SK-MEL-2 melanoma, in the test with HOP-92 NSCLC, with HCC-2998 colon, with SN12C renal and in the test with HCT-116 colon was more than 100 µM each time. Moreover, the TGI in the test with LOX IMVI melanoma, in the test with RXF 393 renal, in the test with MALME-3M melanoma and in the test on UACC-257 melanoma was more than 100 µM throughout.
Consider `COc1cc(CCc2cc(NC(=O)c3ccc(N4C[C@@H](C)N[C@@H](C)C4)cc3)n[nH]2)cc(OC)c1`, for which the GI50 with NCI-H522 lung was > 10 µM and 9.95 µM; with SK-MEL-2 melanoma it was 4.17 µM and 4.95 µM; in the test on HOP-92 NSCLC, 1.95 µM and 1.96 µM; in the test with HCC-2998 colon, > 10 µM and 6.77 µM; in the test with SN12C renal it was 6.39 µM and 3.31 µM; with HCT-116 colon it was 3.79 µM and 3.49 µM. Moreover, the GI50 was 2.93 µM and 2.66 µM in the test with LOX IMVI melanoma; 8.58 µM and 5.25 µM in the test with MALME-3M melanoma; > 10 µM and 2.08 µM in the test on UACC-257 melanoma. The TGI in the test with NCI-H522 lung was > 10 µM and 24.5 µM; with SK-MEL-2 melanoma it was > 10 µM and 18.2 µM; in the test with HOP-92 NSCLC, > 10 µM and 12.8 µM; in the test with HCC-2998 colon, > 10 µM and 19.5 µM; in the test with SN12C renal, > 10 µM and 15.7 µM; in the test on HCT-116 colon, > 10 µM and 13.1 µM. Besides, the TGI in the test on LOX IMVI melanoma was > 10 µM and 10.3 µM; with RXF 393 renal, 7.97 µM and 9.67 µM; with MALME-3M melanoma it was > 10 µM and 19.9 µM; with UACC-257 melanoma, > 10 µM and 5.31 µM.
As to `CCOC(=O)C1C=C2O[C@@H]3OC4(CCCCC4)O[C@@H]3C2[C@H]2C(=O)C=CC(=O)[C@@]12C(=O)OC` (some centres undefined), the TGI in the test on NCI-H522 lung came out at 14.5 µM; with SK-MEL-2 melanoma it was 30.6 µM; in the test with HOP-92 NSCLC it was 26.2 µM; in the test on HCC-2998 colon, 28 µM; in the test on SN12C renal, 31.5 µM; with HCT-116 colon it was 19.1 µM. In addition, the TGI was determined as 32.9 µM with LOX IMVI melanoma, 3.59 µM with RXF 393 renal, 31.2 µM in the test on MALME-3M melanoma and 30.8 µM in the test on UACC-257 melanoma.
As for `CCCCCCCCCCCCCCCCCCNC(=O)[C@H]1CSC(c2ccc(OC)c(F)c2)N1` (some centres undefined), the GI50 in the test with NCI-H522 lung is more than 29.4 µM; in the test on SK-MEL-2 melanoma, 2.27 µM; in the test with HOP-92 NSCLC, 7.48 µM; with HCC-2998 colon it was 1.98 µM; with SN12C renal, 1.52 µM; in the test with HCT-116 colon it was 1.68 µM. Moreover, the GI50 with LOX IMVI melanoma is 2.68 µM; in the test on RXF 393 renal, 2.34 µM; in the test with MALME-3M melanoma, more than 26.2 µM; in the test on UACC-257 melanoma it was more than 19.9 µM. The TGI was more than 51.6 µM with NCI-H522 lung; 5.48 µM with SK-MEL-2 melanoma; 28.9 µM in the test with HOP-92 NSCLC; 7.02 µM in the test on HCC-2998 colon; 3.39 µM in the test on SN12C renal; 3.5 µM in the test on HCT-116 colon. Also, the TGI is 15.8 µM with LOX IMVI melanoma, 5.5 µM with RXF 393 renal, more than 45.5 µM in the test with MALME-3M melanoma and more than 44.1 µM in the test with UACC-257 melanoma.
For `COc1cc2c(cc1OC)C(=O)C(Br)CC2` (centres undefined), the GI50 in the test with NCI-H522 lung is 1.57 µM; with SK-MEL-2 melanoma, 3.6 µM; in the test on HOP-92 NSCLC, 2.63 µM; in the test with HCC-2998 colon it was 11.5 µM; in the test on SN12C renal, 3.49 µM; in the test on HCT-116 colon, 1.74 µM. Also, the GI50 in the test with LOX IMVI melanoma was 1.74 µM; in the test with RXF 393 renal it was 1.55 µM; in the test on MALME-3M melanoma, 3.31 µM; with UACC-257 melanoma, 3.02 µM. Also, the TGI is 3.17 µM with NCI-H522 lung; 9.98 µM with SK-MEL-2 melanoma; 12.2 µM with HOP-92 NSCLC; 24.5 µM in the test on HCC-2998 colon; 12.8 µM in the test on SN12C renal; 3.72 µM in the test with HCT-116 colon. Also, the TGI with LOX IMVI melanoma was 3.34 µM; in the test on RXF 393 renal it was 3.01 µM; in the test with MALME-3M melanoma, 8.18 µM; with UACC-257 melanoma, 11.3 µM.

The values above are taken from PubChem BioAssay (NCI).
